Data published in ChEMBL document CHEMBL4627352, “New acrylamide-sulfisoxazole conjugates as dihydropteroate synthase inhibitors” (Bioorg Med Chem, 2020).
Values after ≈ are worked out from the molar mass of the structure shown. Active and inactive are the calls of the source. The calls are words filed in the database; no cut-off is given here.

How the values were obtained:
[1] = tested on: hTERT-BJ; test: Cytotoxicity against human hTERT-BJ1 cells at 50 uM by acid phosphatase assay relative to control; format: cell-based
[2] = tested on: Staphylococcus epidermidis; test: Inhibition of DHPS in Staphylococcus epidermidis assessed as antibacterial activity by measuring inhibition zone at 5 mg/mL incubated for 24 hrs by disk diffusion method
[3] = tested on: Aspergillus fumigatus; test: Inhibition of DHPS in Aspergillus fumigatus assessed as antifungal activity by measuring inhibition zone at 5 mg/mL incubated for 48 hrs by disk diffusion method
[4] = tested on: Bacillus subtilis; test: Inhibition of DHPS in Bacillus subtilis assessed as antibacterial activity by measuring inhibition zone at 5 mg/mL incubated for 24 hrs by disk diffusion method
[5] = tested on: Escherichia coli ATCC 25922; test: Inhibition of DHPS in Escherichia coli ATCC 25922 assessed as inhibition of bacterial growth incubated for 24 hrs in presence of folate dependent metabolite, methionine by microbroth dilution method
[6] = tested on: Proteus vulgaris; test: Inhibition of DHPS in Proteus vulgaris assessed as antibacterial activity by measuring inhibition zone at 5 mg/mL incubated for 24 hrs by disk diffusion method
[7] = tested on: Escherichia coli ATCC 25922; test: Inhibition of DHPS in Escherichia coli ATCC 25922 assessed as inhibition of bacterial growth incubated for 24 hrs in presence of folate precursor, pABA by microbroth dilution method
[8] = tested on: Escherichia coli; test: Inhibition of DHPS in Escherichia coli assessed as antibacterial activity by measuring inhibition zone at 5 mg/mL incubated for 24 hrs by disk diffusion method
[9] = tested on: Klebsiella pneumoniae; test: Inhibition of DHPS in Klebsiella pneumoniae assessed as antibacterial activity by measuring inhibition of bacterial growth incubated for 24 hrs by microbroth dilution method
[10] = tested on: Geotrichum candidum; test: Inhibition of DHPS in Geotrichum candidum assessed as antifungal activity by measuring inhibition zone at 5 mg/mL incubated for 48 hrs by disk diffusion method
[11] = tested on: Syncephalastrum racemosum; test: Inhibition of DHPS in Syncephalastrum racemosum assessed as antifungal activity by measuring inhibition zone at 5 mg/mL incubated for 48 hrs by disk diffusion method
[12] = tested on: Klebsiella pneumoniae; test: Inhibition of DHPS in Klebsiella pneumoniae assessed as antibacterial activity by measuring inhibition zone at 5 mg/mL incubated for 24 hrs by disk diffusion method
[13] = tested on: Streptococcus pneumoniae; test: Inhibition of DHPS in Streptococcus pneumoniae assessed as antibacterial activity by measuring inhibition zone at 5 mg/mL incubated for 24 hrs by disk diffusion method
[14] = tested on: Staphylococcus epidermidis; test: Inhibition of DHPS in Staphylococcus epidermidis assessed as antibacterial activity by measuring inhibition of bacterial growth incubated for 24 hrs by microbroth dilution method
[15] = tested on: Escherichia coli; test: Inhibition of DHPS in Escherichia coli assessed as antibacterial activity by measuring inhibition of bacterial growth incubated for 24 hrs by microbroth dilution method
[16] = tested on: Streptococcus pneumoniae; test: Inhibition of DHPS in Streptococcus pneumoniae assessed as antibacterial activity by measuring inhibition of bacterial growth incubated for 24 hrs by microbroth dilution method
[17] = tested on: Bacillus subtilis; test: Inhibition of DHPS in Bacillus subtilis assessed as antibacterial activity by measuring inhibition of bacterial growth incubated for 24 hrs by microbroth dilution method
[18] = tested on: Syncephalastrum racemosum; test: Inhibition of DHPS in Syncephalastrum racemosum assessed as antifungal activity by measuring inhibition of fungal growth incubated for 48 hrs by microbroth dilution method
[19] = tested on: Geotrichum candidum; test: Inhibition of DHPS in Geotrichum candidum assessed as antifungal activity by measuring inhibition of fungal growth incubated for 48 hrs by microbroth dilution method
[20] = tested on: Aspergillus fumigatus; test: Inhibition of DHPS in Aspergillus fumigatus assessed as antifungal activity by measuring inhibition of fungal growth incubated for 48 hrs by microbroth dilution method
[21] = tested on: Proteus vulgaris; test: Inhibition of DHPS in Proteus vulgaris assessed as antibacterial activity by measuring inhibition of bacterial growth incubated for 24 hrs by microbroth dilution method
[22] = tested on: Aspergillus fumigatus; test: Potency index, ratio of sulfisoxazole MIC to compound MIC for Aspergillus fumigatus assessed as inhibition of DHPS-mediated fungal growth incubated for 48 hrs by microbroth dilution method

Molecule | inhibition zone (IZ) [2] | inhibition zone (IZ) [3] | inhibition zone (IZ) [4] | inhibition [5] | inhibition zone (IZ) [6] | inhibition [7] | inhibition zone (IZ) [8] | MIC [9] [µg/mL] | inhibition zone (IZ) [10] | inhibition zone (IZ) [11] | inhibition zone (IZ) [12] | inhibition zone (IZ) [13] | MIC [14] [µg/mL] | MIC [15] [µg/mL] | MIC [16] [µg/mL] | MIC [17] [µg/mL] | MIC [18] [µg/mL] | MIC [19] [µg/mL] | also measured
CCN/C(SC)=C(/C#N)C(=O)Nc1ccc(S(=O)(=O)Nc2onc(C)c2C)cc1 | – | – | – | – | – | – | – | – | – | – | – | – | – | – | – | – | – | – | Activity [1]: 1.1%
CC(=O)OC[C@H]1O[C@@H](S/C(Nc2ccccc2)=C(\C#N)C(=O)Nc2ccc(S(=O)(=O)Nc3onc(C)c3C)cc2)[C@H](OC(C)=O)[C@@H](OC(C)=O)[C@@H]1OC(C)=O | 18.9 mm | inactive | 12.4 mm | inactive | 8.3 mm | inactive | 10.6 mm | 62.5 (≈ 78.1 µM) | inactive | inactive | 14.2 mm | 10.6 mm | 15.6 (≈ 19.5 µM) | – | – | – | – | – | –
CCS/C(NC12CC3CC(CC(C3)C1)C2)=C(\C#N)C(=O)Nc1ccc(S(=O)(=O)Nc2onc(C)c2C)cc1 | inactive | inactive | inactive | inactive | inactive | inactive | inactive | – | inactive | inactive | inactive | inactive | – | – | – | – | – | – | –
CC(=O)OC[C@H]1O[C@@H](S/C(Nc2ccccc2)=C(\C#N)C(=O)Nc2ccc(S(=O)(=O)Nc3onc(C)c3C)cc2)[C@H](OC(C)=O)[C@@H](OC(C)=O)[C@H]1OC(C)=O | 14.2 mm | inactive | 19.8 mm | inactive | 11.2 mm | inactive | 13.2 mm | 62.5 (≈ 78.1 µM) | inactive | inactive | 15.8 mm | 15.1 mm | 125 (≈ 156 µM) | 125 (≈ 156 µM) | 62.5 (≈ 78.1 µM) | 1.95 (≈ 2.44 µM) | – | – | –
C=CCN/C(SC)=C(/C#N)C(=O)Nc1ccc(S(=O)(=O)Nc2onc(C)c2C)cc1 | inactive | 12.6 mm | inactive | inactive | inactive | inactive | inactive | – | 18.2 mm | 15.7 mm | inactive | inactive | – | – | – | – | 62.5 (≈ 140 µM) | 15.6 (≈ 34.9 µM) | –
Cc1noc(NS(=O)(=O)c2ccc(N)cc2)c1C | 17.5 mm | 15.1 mm | 20.8 mm | – | inactive | – | 15.2 mm | 7.81 (≈ 29.2 µM) | 16.8 mm | 13.2 mm | 18.2 mm | 19.6 mm | 7.81 (≈ 29.2 µM) | 62.5 (≈ 234 µM) | 1.95 (≈ 7.29 µM) | 0.98 (≈ 3.67 µM) | 125 (≈ 468 µM) | 15.6 (≈ 58.5 µM) | MIC [20]: 62.5 µg/mL (≈ 234 µM)
GENTAMICIN | – | – | – | – | 23.4 mm | – | 19.9 mm | 0.03 | – | – | 26.3 mm | – | – | 1.95 | – | 0.24 | – | – | MIC [21]: 0.24 µg/mL
CCN/C(S)=C(/C#N)C(=O)Nc1ccc(S(=O)(=O)Nc2onc(C)c2C)cc1 | 17.3 mm | 12.6 mm | 15.4 mm | inactive | 12.6 mm | inactive | 14.3 mm | 62.5 (≈ 148 µM) | 17.1 mm | 13.2 mm | 16.4 mm | 13.7 mm | 31.2 (≈ 74.1 µM) | 62.5 (≈ 148 µM) | 62.5 (≈ 148 µM) | 62.5 (≈ 148 µM) | 7.81 (≈ 18.5 µM) | 15.6 (≈ 37.1 µM) | Activity [1]: 1.7%
CS/C(Nc1ccccc1)=C(\C#N)C(=O)Nc1ccc(S(=O)(=O)Nc2onc(C)c2C)cc1 | inactive | inactive | inactive | inactive | inactive | inactive | inactive | – | inactive | inactive | inactive | inactive | – | – | – | – | – | – | –
CCS/C(Nc1ccccc1)=C(\C#N)C(=O)Nc1ccc(S(=O)(=O)Nc2onc(C)c2C)cc1 | 10.1 mm | inactive | 11.2 mm | inactive | inactive | inactive | inactive | – | inactive | inactive | inactive | inactive | – | – | – | – | – | – | –
C[C@@H]1[C@H](O)[C@@H](C)/C=C/C=C/C=C/C=C/C=C/C=C/C=C/[C@H](O[C@@H]2O[C@H](C)[C@@H](O)[C@H](N)[C@@H]2O)C[C@@H]2O[C@](O)(C[C@@H](O)C[C@@H](O)[C@H](O)CC[C@@H](O)C[C@@H](O)CC(=O)O[C@H]1C)C[C@H](O)[C@H]2C(=O)O | – | 23.7 mm | – | – | – | – | – | – | 28.7 mm | 19.7 mm | – | – | – | – | – | – | 7.81 (≈ 8.45 µM) | 0.007 (≈ 0.00758 µM) | MIC [20]: 0.12 µg/mL (≈ 0.13 µM)
Cc1noc(NS(=O)(=O)c2ccc(NC(=O)c3c(N)n[nH]c3Nc3ccccc3)cc2)c1C | 13.4 mm | inactive | 12.6 mm | inactive | inactive | inactive | inactive | – | inactive | inactive | inactive | inactive | 15.6 (≈ 33.4 µM) | – | – | – | – | – | –
Cc1noc(NS(=O)(=O)c2ccc(NC(=O)/C(C#N)=C(/S)NC34CC5CC(CC(C5)C3)C4)cc2)c1C | 16.2 mm | 14.9 mm | 17.4 mm | inactive | 11.7 mm | inactive | 13.3 mm | 62.5 (≈ 118 µM) | 14.7 mm | 13.6 mm | 16.2 mm | 16.9 mm | 62.5 (≈ 118 µM) | 62.5 (≈ 118 µM) | 31.2 (≈ 59.2 µM) | 31.2 (≈ 59.2 µM) | – | 125 (≈ 237 µM) | MIC [20]: 62.5 µg/mL (≈ 118 µM)
CN/C(SC)=C(/C#N)C(=O)Nc1ccc(S(=O)(=O)Nc2onc(C)c2C)cc1 | inactive | inactive | inactive | inactive | inactive | inactive | inactive | – | inactive | inactive | inactive | inactive | – | – | – | – | – | – | –
Cc1noc(NS(=O)(=O)c2ccc(NC(=O)/C(C#N)=C(/S)Nc3ccccc3)cc2)c1C | inactive | 16.8 mm | inactive | inactive | inactive | inactive | inactive | – | 17.1 mm | 14.3 mm | inactive | inactive | – | – | – | – | 125 (≈ 266 µM) | 31.2 (≈ 66.6 µM) | Ratio [22]: 2; MIC [20]: 15.6 µg/mL (≈ 33.3 µM)
CC1(C)S[C@@H]2[C@H](NC(=O)[C@H](N)c3ccccc3)C(=O)N2[C@H]1C(=O)O | 25.4 mm | – | 32.4 mm | – | – | – | – | – | – | – | – | 23.8 mm | 0.06 (≈ 0.172 µM) | – | 0.12 (≈ 0.343 µM) | 0.24 (≈ 0.687 µM) | – | – | –
